# Assays:
# Assay in all cases: relative viability (nuclei count vs DMSO), 5 days (fraction); higher = more cells survive
# [1] = compound: C1=CC2=NC=CN=C2C=C1/C=C/3\C(=O)NC(=O)S3 + O=C(CCCCCCC(=O)Nc1ccccc1)NO [Vorinostat] (partner 1 µM)
# How it was run: (§1)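 Cells from lung cancer lines were seeded into 1536-well plates and, one day later, dosed by pin tool. Treatments were either a single drug or a fixed dose of an anchor drug with five library-drug doses (not always all listed) in √10 steps. After 5 days, nuclei were stained in a one-step fixation (final 0.05% Triton X-100, 1% formaldehyde, 1 ug/ml Hoechst) and counted on 4× images, and relative viability is the treated-to-vehicle nuclei ratio, as the median of duplicate plates.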
# [2] = compound: C1=CC2=NC=CN=C2C=C1/C=C/3\C(=O)NC(=O)S3 + N=C(N)NC(=N)NCCc1ccccc1 [Phenformin] (partner 250 µM)
# How it was run: as §1
# [3] = compound: CCN1CCN(c2ccc(Nc3cc(N(C)C(=O)Nc4c(Cl)c(OC)cc(OC)c4Cl)ncn3)cc2)CC1 [BGJ398] + Cc1nc(NC(=O)N2CCC[C@H]2C(N)=O)sc1-c1ccnc(C(C)(C)C(F)(F)F)c1 [Alpelisib] (partner 2 µM)
# How it was run: as §1
# [4] = compound: C1=CC2=NC=CN=C2C=C1/C=C/3\C(=O)NC(=O)S3 + C[C@]1(O)C[C@@H](c2nc(-c3ccc4ccc(-c5ccccc5)nc4c3)c3c(N)nccn32)C1 [Linsitinib] (partner 1 µM)
# How it was run: as §1
cell line,measurement,setting,value
UMC-11,relative viability,[1]; first compound 0.02 µM,0.373
same,relative viability,[1]; first compound 0.06325 µM,0.345
same,relative viability,[1]; first compound 0.2 µM,0.485
same,relative viability,[1]; first compound 0.6325 µM,0.316
same,relative viability,[1]; first compound 2 µM,0.394
same,relative viability,[2]; first compound 0.02 µM,0.329
same,relative viability,[2]; first compound 0.06325 µM,0.335
same,relative viability,[2]; first compound 0.2 µM,0.373
same,relative viability,[2]; first compound 0.6325 µM,0.338
same,relative viability,[2]; first compound 2 µM,0.331
same,relative viability,[3]; first compound 0.01 µM,0.999
same,relative viability,[3]; first compound 0.03162 µM,0.88
same,relative viability,[3]; first compound 0.1 µM,1.06
same,relative viability,[3]; first compound 0.3162 µM,0.983
same,relative viability,[3]; first compound 1 µM,0.907
same,relative viability,[4]; first compound 0.02 µM,1.02
same,relative viability,[4]; first compound 0.06325 µM,1.12
same,relative viability,[4]; first compound 0.2 µM,1.05
same,relative viability,[4]; first compound 0.6325 µM,0.989
same,relative viability,[4]; first compound 2 µM,1.11
